Laboratory results published in patent US11007206B2, “Cyclic boronic acid ester derivatives and therapeutic uses thereof” (Melinta Subsidiary Corp., priority 2012, dated 2021).
≈ marks a conversion by molar mass, not a printed value. Read-outs that look alike come from different tables or passages of the source.

Experiments:
[1] = Plasma pharmacokinetics of Compound I and Biapenem alone or in combination after 1.5 hour intravenous infusion in Sprague-Dawley rats (Example 3); type: in vivo; settings: for AUC / clearance / half-life: male, Sprague-Dawley, plasma, iv, 20 mg/kg, 1.5 hour intravenous infusion; for AUC / clearance / half-life / Biapenem Calc. Conc. in plasma: rat; for Biapenem Calc. Conc. in plasma: IV infusion
Procedure: Example 3 provides a summary of the pharmacokinetic studies of Compound I alone or in combination with Biapenem following a single intravenous infusion dose in Sprague-Dawley rats. The pharmacokinetics of 20 mg/kg of Compound I, 20 mg/kg of Biapenem, and 20 mg/kg of Compound I in combination with 20 mg/kg of Biapenem after a 1.5 hour intravenous infusion were discussed.
Biapenem power was purchased from Hisun Pharmaceuticals. Compound I was prepared using the method described in the U.S. Publication 2012/0040932 A1. 20 mg of biapenem was dissolved in 0.1 M NaH2PO4 for a basic stock solution. 100 mg of Compound I was dissolved in 30% 1N NaOH to ˜pH 5.0. For animal studies, these stock solutions were further diluted in 0.9% saline to the appropriate concentration.
The specifications for animals used on this study were as follows: • Species: Rat • Strain: Sprague-Dawley • Gender: Male • Source: Charles River (Hollister, Calif.) • Number of Animals: 3 per study • Body Weight Range: 230-280 g at the start of the study
After acclimation, rats (n=3) were administered single 20 mg/kg intravenous infusion doses of Compound I or Biapenem alone or in combination. Doses were infused over 1.5 hours via an indwelling femoral vein cannula. Plasma (˜0.3 mL) samples were collected from each rat at designated time points up to 24 hours. The time points are shown in section 2.9. Blood samples were centrifuged within 5 min of collection at 12000 g for 5 min to obtain plasma. The plasma samples were stored on −80° C. until analyzed.
Compound I standard curves were prepared in rat plasma from 0.1 to 100 μg/mL. 50 μl aliquots of sample were placed in 1.5 mL microcentrifuge tubes. 20 μl of Compound II (10 μg/mL) was added as internal standard to each sample or standard. 20 μl of 30% trichloroacetic acid was then added to each sample or standard. The samples were mixed using a vortex mixer centrifuged for 10 min at 15,000 RPM using a tabletop centrifuge. The supernatant (approx. 120 μl) was removed and added to 100 μl of water in a 96-well plate. The samples were mixed again using a vortex mixer. 10 μl of each sample was injected onto an HPLC-MS for quantification.
The HPLC-MS conditions for Compound I analysis are as follows: • Column: Phenomenex Fusion-RP or equivalent reversed-phase column, 5 um, 50×2 mm. • Flow rate: 0.6 mL/min. • Mobile phase A: 0.1% formic acid in water. • Mobile phase B: 0.1% formic acid in acetonitrile. • Gradient: 5-60% B in 1.5 min. • Mass spectrometer: Negative ion mode with electrospray ionization. • MS/MS: Compound I-Q1-m/e=296, Q3-m/e=234. • Compound II-Q1-m/e=331, Q3-m/e=201.
Biapenem standard curves were prepared in 50% plasma-50% 1M MOPS buffer, pH=7.4 from 1 to 250 ug/mL. 20 uL of sample or standard was added into a 96-well deep well plate. Then 500 uL of 10% water-45% methanol-45% acetonitrile containing 2 ug/mL of meropenem was used as an internal standard. The plate was vortexed for 15 min. at 3,000 RPM. 50 uL of supernatant was removed and added 300 uL of water. 10 uL of samples were injected onto an HPLC-MS system for quantification.
The HPLC-MS conditions for Biaphenem analysis are as follows: • Column: Supelco Discovery HS F5 or equivalent pentafluorophenyl column, 5 um, 50×2.1 mm. • Flow rate: 0.6 mL/min. • Mobile phase A: 0.1% formic acid in water. • Mobile phase B: 0.1% formic acid in acetonitrile. • Gradient: 5-70% B in 1.9 min. • Mass spectrometer: Positive ion mode with electrospray ionization. • MS/MS: Biapenem-Q1-m/e=350.8, Q3-m/e=110.1. • meropenem-Q1-m/e=384.1, Q3-m/e=141.1
Plasma concentrations were fit using a two compartment IV infusion model (WinNonlinVersion 5.3, Pharsight Corp, Mountain View, Calif.).

[2] = test system: multi-drug resistant strains of Enterobacteriaceae, including those producing serine carbapenemases; experiment: Checkerboard MIC of Biapenem alone or in combination with Compound I at fixed concentrations (Example 4); type: cell-based
Procedure: The evaluation of Compound I in combination with the carbapenem antibiotic Biapenem against multi-drug resistant strains of Enterobacteriaceae, including those producing serine carbapenemases were also conducted. Antibiotic potentiation activity of Compound I was studied in checkerboard MIC experiments and time-kill assays. The MICs of Biapenem were […]) against characterized and engineered isolates producing various beta-lactamases, as well as in geographically diverse panels of multi-drug resistant strains of Enterobacteriaceae (including strains that express the most relevant beta-lactamases).

P. aeruginosa = experiment: Potency of Biapenem with or without Compound I against P. aeruginosa (Example 4); type: cell-based; settings: Biapenem compared with meropenem
K. pneumoniae strains = experiment: Biapenem MICs of the K. pneumoniae strains used in the infection models (Example 6); type: cell-based; settings: Klebsiella pneumoniae
[3] = Sprague-Dawley rats, 20 mg/kg Compound I in combination with 20 mg/kg Biapenem
[4] = Sprague-Dawley rats, administered alone

C[C@@H](O)[C@H]1C(=O)N2C(C(=O)[O-])=C(SC3Cn4cnc[n+]4C3)[C@H](C)[C@H]12 (some centres unmarked) [Biapenem]
Plasma pharmacokinetic parameters, alone versus in combination ([1]; Sprague-Dawley rats, single intravenous infusion): unchanged
AUC [1, 3]: 10100 ± 1130 ng·h/mL
clearance [1, 3]: 33.8 mL/min/kg
half-life [1, 3]: 13.2 ± 0.6 min
AUC [1, 4]: 8950 ± 890 ng·h/mL
clearance [1, 4]: 38.2 mL/min/kg
half-life [1, 4]: 12.6 ± 0.6 min
Biapenem Calc. Conc. in plasma ([1]; sample r.p. # 7.10 (first line), 20 mg/kg Compound I in combination with 20 mg/kg Biapenem): 0.100 µg/mL
Biapenem Calc. Conc. in plasma ([1]; sample r.p. # 7.10 (second line), 20 mg/kg Compound I in combination with 20 mg/kg Biapenem): <0 µg/mL
Biapenem Calc. Conc. in plasma ([1]; sample r.p. # 7.1, 20 mg/kg Compound I in combination with 20 mg/kg Biapenem): 5.61 µg/mL
Biapenem Calc. Conc. in plasma ([1]; sample r.p. # 7.2, 20 mg/kg Compound I in combination with 20 mg/kg Biapenem): 7.98 µg/mL
Biapenem Calc. Conc. in plasma ([1]; sample r.p. # 7.3, 20 mg/kg Compound I in combination with 20 mg/kg Biapenem): 5.08 µg/mL
Biapenem Calc. Conc. in plasma ([1]; sample r.p. # 7.4, 20 mg/kg Compound I in combination with 20 mg/kg Biapenem): 6.47 µg/mL
Biapenem Calc. Conc. in plasma ([1]; sample r.p. # 7.5, 20 mg/kg Compound I in combination with 20 mg/kg Biapenem): 3.03 µg/mL
Biapenem Calc. Conc. in plasma ([1]; sample r.p. # 7.6, 20 mg/kg Compound I in combination with 20 mg/kg Biapenem): 1.89 µg/mL
Biapenem Calc. Conc. in plasma ([1]; sample r.p. # 7.7, 20 mg/kg Compound I in combination with 20 mg/kg Biapenem): 1.22 µg/mL
Biapenem Calc. Conc. in plasma ([1]; sample r.p. # 7.8, 20 mg/kg Compound I in combination with 20 mg/kg Biapenem): 0.103 µg/mL
Biapenem Calc. Conc. in plasma ([1]; sample r.p. # 7.9, 20 mg/kg Compound I in combination with 20 mg/kg Biapenem): 0.0321 µg/mL
Biapenem Calc. Conc. in plasma ([1]; sample r.p. # 8.10 (first line), 20 mg/kg Compound I in combination with 20 mg/kg Biapenem): 0.0587 µg/mL
Biapenem Calc. Conc. in plasma ([1]; sample r.p. # 8.10 (second line), 20 mg/kg Compound I in combination with 20 mg/kg Biapenem): No Peak
Biapenem Calc. Conc. in plasma ([1]; sample r.p. # 8.1, 20 mg/kg Compound I in combination with 20 mg/kg Biapenem): 4.40 µg/mL
Biapenem Calc. Conc. in plasma ([1]; sample r.p. # 8.2, 20 mg/kg Compound I in combination with 20 mg/kg Biapenem): 5.21 µg/mL
Biapenem Calc. Conc. in plasma ([1]; sample r.p. # 8.3, 20 mg/kg Compound I in combination with 20 mg/kg Biapenem): 7.28 µg/mL
Biapenem Calc. Conc. in plasma ([1]; sample r.p. # 8.4, 20 mg/kg Compound I in combination with 20 mg/kg Biapenem): 2.71 µg/mL
Biapenem Calc. Conc. in plasma ([1]; sample r.p. # 8.5, 20 mg/kg Compound I in combination with 20 mg/kg Biapenem): 1.87 µg/mL
Biapenem Calc. Conc. in plasma ([1]; sample r.p. # 8.6, 20 mg/kg Compound I in combination with 20 mg/kg Biapenem): 1.52 µg/mL
Biapenem Calc. Conc. in plasma ([1]; sample r.p. # 8.7, 20 mg/kg Compound I in combination with 20 mg/kg Biapenem): 0.828 µg/mL
Biapenem Calc. Conc. in plasma ([1]; sample r.p. # 8.8, 20 mg/kg Compound I in combination with 20 mg/kg Biapenem): 0.0353 µg/mL
Biapenem Calc. Conc. in plasma ([1]; sample r.p. # 8.9, 20 mg/kg Compound I in combination with 20 mg/kg Biapenem): 0.0393 µg/mL
Biapenem Calc. Conc. in plasma ([1]; sample r.p. # 9.10 (first line), 20 mg/kg Compound I in combination with 20 mg/kg Biapenem): 0.196 µg/mL
Biapenem Calc. Conc. in plasma ([1]; sample r.p. # 9.10 (second line), 20 mg/kg Compound I in combination with 20 mg/kg Biapenem): <0 µg/mL
Biapenem Calc. Conc. in plasma ([1]; sample r.p. # 9.1, 20 mg/kg Compound I in combination with 20 mg/kg Biapenem): 3.86 µg/mL
Biapenem Calc. Conc. in plasma ([1]; sample r.p. # 9.2, 20 mg/kg Compound I in combination with 20 mg/kg Biapenem): 7.34 µg/mL
Biapenem Calc. Conc. in plasma ([1]; sample r.p. # 9.3, 20 mg/kg Compound I in combination with 20 mg/kg Biapenem): 9.20 µg/mL
Biapenem Calc. Conc. in plasma ([1]; sample r.p. # 9.5, 20 mg/kg Compound I in combination with 20 mg/kg Biapenem): 4.90 µg/mL
Biapenem Calc. Conc. in plasma ([1]; sample r.p. # 9.6, 20 mg/kg Compound I in combination with 20 mg/kg Biapenem): 2.16 µg/mL
Biapenem Calc. Conc. in plasma ([1]; sample r.p. # 9.7, 20 mg/kg Compound I in combination with 20 mg/kg Biapenem): 1.69 µg/mL
Biapenem Calc. Conc. in plasma ([1]; sample r.p. # 9.8, 20 mg/kg Compound I in combination with 20 mg/kg Biapenem): 0.0705 µg/mL
Biapenem Calc. Conc. in plasma ([1]; sample r.p. # 9.9, 20 mg/kg Compound I in combination with 20 mg/kg Biapenem): 0.00349 µg/mL
MIC ([2]; read-out: Biapenem MICs in the presence of Compound I, in the presence of 0.3 to 5 μg/ml of Compound I, characterized strains of Enterobacteriaceae with serine carbapenemases): < 0.25 µg/mL
MIC ([2]; read-out: Biapenem MICs, Biapenem alone, KPC-producing strains including those expressing multiple classes of enzymes): 8 to 64 µg/mL
MIC ([2]; read-out: Biapenem MICs, Biapenem alone, KPC-producing strains used in the time-kill studies): 16 to 32 µg/mL
MIC90 ([2]; read-out: MIC90 of Biapenem with Compound I): 0.5 µg/mL
Potency against P. aeruginosa (P. aeruginosa): potency similar to meropenem
MIC (K. pneumoniae strains; ATCC43816, K. pneumoniae strain ATCC 43816, read-out: Biapenem MIC Alone): 0.25 µg/mL (≈ 0.713 µM)
MIC (K. pneumoniae strains; ATCC43816, K. pneumoniae strain ATCC 43816, with Compound I 5 μg/mL, read-out: Biapenem MIC with Compound I (5 μg/mL)): 0.25 µg/mL (≈ 0.713 µM)
MIC (K. pneumoniae strains; K. pneumoniae strain KP1004, read-out: Biapenem MIC Alone): 16 µg/mL (≈ 45.7 µM)
MIC (K. pneumoniae strains; K. pneumoniae strain KP1004, with Compound I 5 μg/mL, read-out: Biapenem MIC with Compound I (5 μg/mL)): ≤ 0.06 µg/mL
MIC (K. pneumoniae strains; K. pneumoniae strain KP1061, read-out: Biapenem MIC Alone): 32 µg/mL (≈ 91.3 µM)
MIC (K. pneumoniae strains; K. pneumoniae strain KP1061, with Compound I 5 μg/mL, read-out: Biapenem MIC with Compound I (5 μg/mL)): ≤ 0.06 µg/mL
MIC (K. pneumoniae strains; K. pneumoniae strain KP1074, read-out: Biapenem MIC Alone): 64 µg/mL (≈ 183 µM)
MIC (K. pneumoniae strains; K. pneumoniae strain KP1074, with Compound I 5 μg/mL, read-out: Biapenem MIC with Compound I (5 μg/mL)): 0.25 µg/mL (≈ 0.713 µM)
MIC (K. pneumoniae strains; four K. pneumoniae strains used in the infection models, read-out: Biapenem MICs): 0.25 to 64 µg/mL (≈ 0.713 to 183 µM)
